Assay results from PubChem BioAssay (NCI).
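A five-concentration, 48-hour dose response in 96-well plates underlies each endpoint, interpolated linearly between surrounding concentrations. Here, GI50 denotes the concentration required for 50% inhibition of growth. At the TGI there is no net growth.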

Key:
Experiment in all cases: NCI anticancer screen, dose series, 48 h
[1] = test system: U251 CNS
[2] = test system: KM12 colon
[3] = test system: A498 renal
[4] = test system: NCI-H522 lung
[5] = test system: SW-620 colon
[6] = test system: HL-60(TB) leukemia
[7] = test system: RXF 393 renal
[8] = test system: BT-549 breast
[9] = test system: MCF7 breast
[10] = test system: MDA-MB-231 breast

Compound	TGI [1] [µM]	TGI [2] [µM]	TGI [3] [µM]	TGI [4] [µM]	TGI [5] [µM]	TGI [6] [µM]	TGI [7] [µM]	GI50 [1] [µM]	GI50 [2] [µM]	GI50 [8] [µM]	TGI [8] [µM]	GI50 [4] [µM]	GI50 [5] [µM]	GI50 [6] [µM]	GI50 [7] [µM]	GI50 [9] [µM]	TGI [9] [µM]	GI50 [10] [µM]	TGI [10] [µM]	GI50 [3] [µM]
CC(C(=O)c1ccc(O)cc1)C1(O)C(=O)Nc2c(Cl)cc(Cl)cc21 (stereo not drawn)	> 100	> 100	> 85.3	57.8	> 100	50.2	68.8	–	–	–	–	–	–	–	–	–	–	–	–	–
COC(=O)c1ccc(N/C=C(/C#N)c2ccsc2)cc1	20.3	32.2	15.7	–	54.7	> 100	23.9	–	–	–	–	–	–	–	–	–	–	–	–	–
COc1ccc(C2C(C(=O)O)=C(CO)Oc3cc4c(cc32)OCO4)c(OC)c1 (stereo not drawn)	> 100	–	–	–	> 100	> 100	> 100	–	–	–	–	–	–	–	–	–	–	–	–	–
Nc1ncc(-c2ccc3ncnc(N4CCc5cc(F)c(Cl)cc54)c3c2)cc1C(F)(F)F	> 100	> 100	–	> 100	> 100	> 100	1.53	3.5	2.47	1.07	8.33	2.01	1.95	0.981	0.274	–	–	–	–	–
Fc1cccc(-c2nc(-c3c[nH]c4ncccc34)cs2)c1	> 100	> 100	–	> 100	> 100	> 100	90.8	25	> 100	44.8	> 100	> 100	> 100	> 100	23.1	5.27	> 100	38.2	> 100	–
O=CCC(O)C(O)C(O)CO (stereo not drawn)	> 100	> 100	–	> 100	> 100	–	–	> 100	> 100	–	–	> 100	> 100	–	–	> 100	> 100	> 100	> 100	–
CN(C)C(=S)/N=C(\N)N(C)C	> 100	> 100	> 100	> 100	> 100	> 100	> 100	–	–	–	–	–	–	–	–	–	–	–	–	–
CNC(=O)NCCCCC(NC(=O)OCc1ccccc1)C(=O)OCc1ccccc1 (stereo not drawn)	54.4	71	> 100	28.3	> 100	32.4	33.9	–	–	–	–	–	–	–	–	–	–	–	–	–
CCSc1nnc(-c2ccc3ccccc3c2O)n1-c1ccccc1	–	–	–	> 100	–	> 100	> 100	–	–	> 100	> 100	4.27	–	> 100	> 100	–	–	> 100	> 100	–
NCCNc1nc2ccc(F)cc2c2c(=O)c3cc(F)ccc3sc12	3.24	3.46	6.9	3.38	3.09	5.21	7.32	1.76	1.81	9.72	24.1	1.73	1.56	2.28	2.33	–	–	1.51	3.08	1.64
CC(C)(C)CC(C)(C)c1cc2c(O)c(c1)Cc1cc(C(C)(C)CC(C)(C)C)cc(c1O)Cc1cc(C(C)(C)CC(C)(C)C)cc(c1O)Cc1cc(C(C)(C)CC(C)(C)C)cc(c1O)Cc1cc(C(C)(C)CC(C)(C)C)cc(c1O)Cc1cc(C(C)(C)CC(C)(C)C)cc(c1O)Cc1cc(C(C)(C)CC(C)(C)C)cc(c1O)Cc1cc(C(C)(C)CC(C)(C)C)cc(c1O)C2	> 100	> 100	–	> 100	> 100	> 100	> 100	–	–	–	–	–	–	–	–	–	–	–	–	–
C=CC(=O)OCCCS(=O)(=O)[O-].C=CC(=O)OCCCS(=O)(=O)[O-].NC1CCCCC1N.[Pt+4]	> 25	> 25	> 25	> 25	> 25	> 25	> 25	> 25	> 25	–	–	> 25	> 25	> 25	> 25	–	–	–	–	> 25
CC1=C(C(=O)NCc2ccccc2)C(c2ccc(N(C)C)cc2)C(C(=O)NCc2ccccc2)=C(C)N1	> 100	> 100	> 100	> 100	> 100	> 100	80.3	–	–	–	–	–	–	–	–	–	–	–	–	–
O=C(/C=C/c1ccco1)N1CCN(Cc2ccccc2)CC1	> 100	> 100	> 100	> 100	> 100	> 100	–	–	–	–	–	–	–	–	–	–	–	–	–	–
COc1cc2ccnc(-c3n[nH]c4cc(OC)c(OC)cc34)c2cc1OC	> 100	> 100	> 100	69.7	> 100	> 100	–	–	–	–	–	–	–	–	–	–	–	–	–	–
C=C(C)C1Cc2cc(C(C)=O)ccc2O1 (stereo not drawn)	> 100	> 100	–	> 100	> 100	> 100	–	–	–	–	> 100	–	–	–	–	–	> 100	–	> 100	–
CC(C)=CC1(C)/C(=N\O)C(C)(CC(C)C)C(=O)N1O (stereo not drawn)	> 100	> 100	> 100	> 100	> 100	> 100	> 100	–	–	–	–	–	–	–	–	–	–	–	–	–
NC(CCSCCF)C(=O)O (stereo not drawn)	> 100	> 100	> 100	> 100	> 100	> 100	–	–	–	–	–	–	–	–	–	–	–	–	–	–
O=C(/C=C/c1cc(O)ccc1O)c1ccc(Cl)cc1	51.2	> 100	–	> 100	> 100	–	> 100	19.6	31.8	25.9	51.8	61.8	61.9	–	> 100	48.5	> 100	11.7	43.5	–
CSc1ccc(NC(=O)CCl)cc1	> 10	> 10	–	6.82	> 10	> 10	> 10	–	–	–	–	–	–	–	–	–	> 10	–	> 10	–
COc1ccc2c3c1OC1C4(CCC5C(C2)N(CC2CC2)CCC351)OCCO4 (stereo not drawn)	> 100	> 100	–	> 100	> 100	> 100	> 100	–	–	–	> 100	–	–	–	–	–	> 100	–	> 100	–
Cc1c(-c2cc(-c3ccccc3)n[nH]c2=O)c2ccccc2n1C	> 100	> 100	> 100	> 100	> 100	> 100	> 100	–	–	–	–	–	–	–	–	–	–	–	–	–
